Tests used:
[1] = tested on: JAK2 dependent human megakaryoblastic leukemia cell line SET-2; assay: Cell proliferation assay (CellTiter-Glo, 72 hours); assay type: cell-based; conditions: Homo sapiens, SET-2 cells
Procedure: The JAK2 dependent human megakaryoblastic leukemia cell line SET-2 (DSMZ, Braunschweig GERMANY) and the JAK2 independent human chronic myelogenous leukaemia cell line K562 (ECACC, Wiltshire, UK) were cultured in RPMI-1640 medium-Glutamax (Gibco BRL, Gaithesburg, Md., USA), supplemented with 10% fetal bovine serum (FBS) at 37° C. and 5% CO2.
Cell Proliferation Assay:
Approximately 5×10^3 cells were plated into 384 microtiter plate wells in 50 μL of growth media with different concentrations of inhibitors. The cells were incubated at 37° C. and 5% CO2 for 72 hours, then the plates were processed using CellTiter-Glo assay (Promega, Madison, Wis., USA) following the manufacturer's instruction. Briefly 25 μL/well reagent solution is added to each well and after 5 minutes shaking the micro-plates are read by Envision luminometer (PerkinElmer, Waltham, Mass., USA).
Data are analyzed by Symix Assay Explorer software (Symix Technologies Inc.) that provides sigmoidal fitting algorithm of the 8 points dilutions curves for IC50 determination.

JAK2 kinase domain = biological target: T1, JAK2 kinase domain (Homo sapiens, UniProt O60674); assay: Biochemical assay for inhibitors of JAK kinase activity (JAK2, 33P-γ-ATP/dowex resin); conditions: JAK2 kinase domain 1 nM, 60 μM ATP
T1 construct: commercially available JAK2 kinase domain; purchased Invitrogen, Eugene, Oreg
Excerpt: Biochemical Assay for Inhibitors of JAK Kinase Activity
Specific JAK2, JAK1 or JAK3 peptide substrates are trans-phosphorylated by JAK kinases in the presence of ATP traced with 33P-γ-ATP. At the end of the phosphorylation reaction, the unreacted ATP, cold and radioactive, is captured by an excess of dowex ion exchange resin that eventually settles by gravity to the bottom of the reaction plate. The supernatant is subsequently withdrawn and transferred into a counting plate that is then evaluated by β-counting.
500 g of wet resin (SIGMA, custom prepared resin DOWEX 1×8 200-400 mesh, 2.5 Kg) are weighed out and diluted 2 to 1 in 150 mM sodium formate, pH 3.00. The resin is allowed to settle down overnight and then the supernatant is discarded. After three washes as above over a couple of days, the resin is allowed to settle and two volumes (with respect to the resin volume) of 150 mM sodium formate buffer are added.
Kinase buffer was composed of 50 mM HEPES pH 7.5 containing 10 mM MgCl2, 2.5 mM DTT, 10 μM Na3VO4 and 0.2 mg/mL BSA.
JAK2 Specific Assay Conditions
The JAK2 kinase assay was run with a final enzyme concentration of 1 nM, in the presence of 60 μM ATP, 3 nM 33P-γ-ATP and 64 μM of substrate BioDBn*306 (Aminoacid sequence: LPLDKDYYVVREPGQ—SEQ ID NO: 1). The peptidic substrate was purchased from American Peptide Company (Sunnyvale, Calif.).
For IC50 determination, test compounds are received as a 1 mM solution in 100% DMSO, distributed into 96 well plates: compounds are then plated into the first column of a microtiter plate (A1 to G1), 100 μL/well.
An automated station for serial dilutions (Biomek FX, Beckman) is used for producing 1:3 dilutions in 100% DMSO, from line A1 to A10, and for all the compounds in the column. Moreover, 4-5 copies of daughter plates are prepared by reformatting 5 μL of this first set of 100% DMSO dilution plates into 384 deep well-plates: one of these plates with the serial dilutions of test compounds will be thawed the day of the experiments, reconstituted at a 3× concentration with water and used in the IC50 determination assays. In a standard experiment, the highest concentration (3×) of all compounds is 30 μM, while the lowest one is 1.5 nM. Each 384 well-plate will contain at least one curve of the standard inhibitor staurosporine and reference wells (total enzyme activity vs. no enzymatic activity) for the Z′ and signal to background evaluation.
384-well plates, V bottom (test plates) are prepared with 5 μL of the compound dilution (3×) and then placed onto a PlateTrak 12 robotized station (Perkin Elmer; the robot has one 384-tip pipetting head for starting the assay plus one 96-tip head for dispensing the resin) together with one reservoir for the Enzyme mix (3×) and one for the ATP mix (3×). At the start of the run, the robot aspirates 5 μL of ATP mix, makes an air gap inside the tips (3 μl) and aspirates 5 μL of JAK2 mix. The following dispensation into the plates plus 3 cycles of mixing, done by the robot itself, starts the kinase reaction. At this point, the correct concentrations are restored for all the reagents. The robot incubates the plates for 60 minutes at room temperature, and then stops the reaction by pipetting 60 μL of dowex resin suspension into the reaction mix. In order to avoid tip clogging, wide bore tips are used to dispense the resin suspension. Three cycles of mixing are done immediately after the addition of the resin. Another mixing cycle is performed after all the plates are stopped, this time using normal tips: the plates are then allowed to rest for about one hour in order to allow resin sedimentation. At this point, 27 μL of the supernatant are transferred into 384-Optiplates (Perkin-Elmer), with 50 μL of Microscint 40 (Perkin-Elmer); after 5 min of orbital shaking the plates are read on a Perkin-Elmer Top Count radioactivity counter. […]

T1 sequence (O60674 849-1124 limits assumed): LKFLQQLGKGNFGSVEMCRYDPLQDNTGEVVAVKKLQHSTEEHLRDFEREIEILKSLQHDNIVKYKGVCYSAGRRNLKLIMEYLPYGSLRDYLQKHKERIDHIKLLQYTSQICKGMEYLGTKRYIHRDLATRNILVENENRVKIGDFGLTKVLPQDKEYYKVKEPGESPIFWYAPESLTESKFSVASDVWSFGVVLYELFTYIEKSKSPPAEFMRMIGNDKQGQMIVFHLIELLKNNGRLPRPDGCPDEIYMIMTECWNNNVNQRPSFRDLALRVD

SMILES	IC50 [1]	IC50 (JAK2 kinase domain)
Cc1ccc(Cl)cc1-c1[nH]c(-c2nc(N)ncc2C#Cc2ccccc2)cc1C(N)=O [compound 1, 5-[2-Amino-5-(phenylethynyl)pyrimidin-4-yl]-2-(5-chloro-2-methylphenyl)-1H-pyrrole-3-carboxamide]	300 nM	2 nM
COc1ccccc1C#Cc1cnc(N)nc1-c1cc(C(N)=O)c(-c2cc(Cl)ccc2C)[nH]1 [compound 5, 5-{2-Amino-5-[(2-methoxyphenyl)ethynyl]pyrimidin-4-yl}-2-(5-chloro-2-methylphenyl)-1H-pyrrole-3-carboxamide]	750 nM	5 nM
Cc1ccc(Cl)cc1-c1[nH]c(-c2nc(N)ncc2C#Cc2cccc(NC3CCN(C)CC3)c2)cc1C(N)=O [compound 12, 5-[2-Amino-5-({3-[(1-methylpiperidin-4-yl)amino]phenyl}ethynyl)pyrimidin-4-yl]-2-(5-chloro-2-methylphenyl)-1H-pyrrole-3-carboxamide]	500 nM	1 nM
Cc1ccc(Cl)cc1-c1[nH]c(-c2nc(N)ncc2C#Cc2ccc(N3CCC(N4CCCC4)CC3)cc2)cc1C(N)=O [compound 26, 5-[2-Amino-5-({4-[4-(pyrrolidin-1-yl)piperidin-1-yl]phenyl}ethynyl)pyrimidin-4-yl]-2-(5-chloro-2-methylphenyl)-1H-pyrrole-3-carboxamide]	290 nM	1 nM
Cc1ccc(Cl)cc1-c1[nH]c(-c2nc(N)ncc2C#Cc2ccc(N3CCC[C@H]3CN3CCCC3)cc2)cc1C(N)=O [compound 31, 5-[2-Amino-5-({4-[(2S)-2-(pyrrolidin-1-ylmethyl)pyrrolidin-1-yl]phenyl}ethynyl)pyrimidin-4-yl]-2-(5-chloro-2-methylphenyl)-1H-pyrrole-3-carboxamide]	310 nM	1 nM
Cc1ccc(Cl)cc1-c1[nH]c(-c2nc(N)ncc2C#CC2CC2)cc1C(N)=O [compound 38, 5-[2-Amino-5-(cyclopropylethynyl)pyrimidin-4-yl]-2-(5-chloro-2-methylphenyl)-1H-pyrrole-3-carboxamide]	570 nM	2 nM
Cc1ccc(Cl)cc1-c1[nH]c(-c2nc(N)ncc2C#Cc2ccc(Br)cc2)cc1C(N)=O [compound 40, 5-{2-Amino-5-[(4-bromophenyl)ethynyl]pyrimidin-4-yl}-2-(5-chloro-2-methylphenyl)-1H-pyrrole-3-carboxamide]	2480 nM	85 nM
Cc1ccc(Cl)cc1-c1[nH]c(-c2nc(N)ncc2C#Cc2ccccc2NCCO)cc1C(N)=O [compound 43, 5-[2-Amino-5-({2-[(2-hydroxyethyl)amino]phenyl}ethynyl)pyrimidin-4-yl]-2-(5-chloro-2-methylphenyl)-1H-pyrrole-3-carboxamide]	960 nM	13 nM
Cc1ccc(Cl)cc1-c1[nH]c(-c2nc(N)ncc2C#CCN(C)C)cc1C(N)=O [compound 44, 5-{2-Amino-5-[3-(dimethylamino)prop-1-yn-1-yl]pyrimidin-4-yl}-2-(5-chloro-2-methylphenyl)-1H-pyrrole-3-carboxamide]	460 nM	11 nM
Cc1ccc(Cl)cc1-c1[nH]c(-c2nc(N)ncc2C#Cc2ccccc2NCCN(C)C)cc1C(N)=O [compound 45, 5-{2-Amino-5-[(2-{[2-(dimethylamino)ethyl]amino}phenyl)ethynyl]pyrimidin-4-yl}-2-(5-chloro-2-methylphenyl)-1H-pyrrole-3-carboxamide]	560 nM	10 nM
Cc1ccc(Cl)cc1-c1[nH]c(-c2nc(N)ncc2C#Cc2cccnc2)cc1C(N)=O [compound 53, 5-[2-Amino-5-(pyridin-3-ylethynyl)pyrimidin-4-yl]-2-(5-chloro-2-methylphenyl)-1H-pyrrole-3-carboxamide]	110 nM	2 nM
Cc1ccc(Cl)cc1-c1[nH]c(-c2nc(N)ncc2C#CC(C)(C)O)cc1C(N)=O [compound 54, 5-[2-Amino-5-(3-hydroxy-3-methylbut-1-yn-1-yl)pyrimidin-4-yl]-2-(5-chloro-2-methylphenyl)-1H-pyrrole-3-carboxamide]	780 nM	16 nM
Cc1ccc(Cl)cc1-c1[nH]c(-c2nc(N)ncc2C#Cc2ccc(CN3CCN(C)CC3)cc2)cc1C(N)=O [compound 65, 5-[2-Amino-5-({4-[(4-methylpiperazin-1-yl)methyl]phenyl}ethynyl)pyrimidin-4-yl]-2-(5-chloro-2-methylphenyl)-1H-pyrrole-3-carboxamide]	80 nM	1 nM
Cc1ccc(Cl)cc1-c1[nH]c(-c2ccnc(N)n2)c(C#Cc2cccc(NC3CCN(C)CC3)c2)c1C(N)=O [compound 80, 5-(2-Aminopyrimidin-4-yl)-2-(5-chloro-2-methylphenyl)-4-({3-[(1-methylpiperidin-4-yl)amino]phenyl}ethynyl)-1H-pyrrole-3-carboxamide]	780 nM	6 nM
